From PubChem BioAssay (NCI)
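Cells were grown in 96-well plates and exposed to each compound for 48 hours at five concentrations; endpoints were interpolated linearly between bracketing concentrations, or set to the highest concentration if not reached. TGI: concentration producing complete growth inhibition.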

Assays:
Experiment in all cases: NCI anticancer screen, dose series, 48 h
[1] = tested on: NCI-H460 lung
[2] = tested on: SNB-75 CNS
[3] = tested on: MCF7 breast
[4] = tested on: LXFL 529 NSCLC
[5] = tested on: SK-MEL-28 melanoma
[6] = tested on: IGROV1 ovarian
[7] = tested on: UO-31 renal
[8] = tested on: OVCAR-8 ovarian
[9] = tested on: MDA-N
[10] = tested on: MDA-MB-231 breast
[11] = tested on: K-562 leukemia
[12] = tested on: HCT-116 colon
[13] = tested on: SF-268 CNS
[14] = tested on: UACC-257 melanoma
[15] = tested on: A498 renal
[16] = tested on: OVCAR-5 ovarian
[17] = tested on: RPMI-8226 leukemia
[18] = tested on: HCC-2998 colon
[19] = tested on: DLD-1 colon
[20] = tested on: HT29 colon
[21] = tested on: SW-620 colon
[22] = tested on: SK-OV-3 ovarian
[23] = tested on: UACC-62 melanoma
[24] = tested on: NCI-H23 lung
[25] = tested on: HS 578T breast
[26] = tested on: BT-549 breast
[27] = tested on: CAKI-1 renal
[28] = tested on: NCI-H226 lung
[29] = tested on: MALME-3M melanoma
[30] = tested on: SN12C renal
[31] = tested on: COLO 205 colon
[32] = tested on: SF-295 CNS
[33] = tested on: HOP-92 NSCLC
[34] = tested on: HOP-62 NSCLC
[35] = tested on: LOX IMVI melanoma
[36] = tested on: EKVX NSCLC
[37] = tested on: 786-0 renal
[38] = tested on: M19-MEL melanoma
[39] = tested on: SNB-78 CNS
[40] = tested on: SK-MEL-2 melanoma
[41] = tested on: MOLT-4 leukemia
[42] = tested on: HCT-15 colon
[43] = tested on: TK-10 renal
[44] = tested on: OVCAR-3 ovarian
[45] = tested on: A549 NSCLC
[46] = tested on: KM12 colon
[47] = tested on: HOP-18 NSCLC
[48] = tested on: T-47D breast
[49] = tested on: CCRF-CEM leukemia
[50] = tested on: DMS 114 small cell lung
[51] = tested on: U251 CNS
[52] = tested on: HL-60(TB) leukemia
[53] = tested on: SK-MEL-5 melanoma
[54] = tested on: M14 melanoma
[55] = tested on: RXF 393 renal
[56] = tested on: MDA-MB-435
[57] = tested on: NCI/ADR-RES ovarian
[58] = tested on: KM20L2 colon
[59] = tested on: ACHN renal
[60] = tested on: SR leukemia
[61] = tested on: SF-539 CNS
[62] = tested on: PC-3 prostate
[63] = tested on: DU-145 prostate
[64] = tested on: SNB-19 CNS
[65] = tested on: OVCAR-4 ovarian
[66] = tested on: NCI-H522 lung

CN(C)CCCNc1ccc2nnn3c4ccc(O)cc4c(=O)c1c23
TGI [1]: 14.1 µM
TGI [2]: 20.2 µM
TGI [3]: 24.8 µM
TGI [4]: 20.1 µM
TGI [5]: 22.5 µM
TGI [6]: 17.9 µM
TGI [7]: 9.79 µM
TGI [8]: 17.6 µM
TGI [9]: 19.9 µM
TGI [10]: 23.6 µM
TGI [11]: > 57.2 µM
TGI [12]: 16 µM
TGI [13]: 16.3 µM
TGI [14]: 29.8 µM
TGI [15]: 20.1 µM
TGI [16]: 23.2 µM
TGI [17]: 29.6 µM
TGI [18]: 15.2 µM
TGI [19]: 18.1 µM
TGI [20]: 15.6 µM
TGI [21]: 17.2 µM
TGI [22]: 23.4 µM
TGI [23]: 23.7 µM
TGI [24]: 18.3 µM
TGI [25]: 13.3 µM
TGI [26]: 33.9 µM
TGI [27]: 13.1 µM
TGI [28]: 17.3 µM
TGI [29]: 23.1 µM
TGI [30]: 18.8 µM
TGI [31]: 15.8 µM
TGI [32]: 18.7 µM
TGI [33]: 20.7 µM
TGI [34]: 17.6 µM
TGI [35]: 4.12 µM
TGI [36]: 25.3 µM
TGI [37]: 16.9 µM
TGI [38]: 25.6 µM
TGI [39]: 20.7 µM
TGI [40]: 26.3 µM
TGI [41]: 9.3 µM
TGI [42]: 19.7 µM
TGI [43]: 19.4 µM
TGI [44]: 23 µM
TGI [45]: 16.9 µM
TGI [46]: 13.5 µM
TGI [47]: 29.1 µM
TGI [48]: 40.9 µM
TGI [49]: 38.2 µM
TGI [50]: 23.1 µM
TGI [51]: 18.7 µM
TGI [52]: > 46.9 µM
TGI [53]: 19.7 µM
TGI [54]: 21 µM
TGI [55]: 1.16 µM
TGI [56]: 20.9 µM
TGI [57]: 21.8 µM
TGI [58]: 17.1 µM
TGI [59]: 13.5 µM
TGI [60]: 3.61 µM
TGI [61]: 19.6 µM
TGI [62]: 17.5 µM
TGI [63]: 18.6 µM
TGI [64]: 23.7 µM
TGI [65]: 18.5 µM
TGI [66]: 19.8 µM
